Experiment [1] has as its target T1, Cysteine--tRNA ligase, cytoplasmic (Homo sapiens, UniProt P49589).
T1 sequence (P49589 whole entry): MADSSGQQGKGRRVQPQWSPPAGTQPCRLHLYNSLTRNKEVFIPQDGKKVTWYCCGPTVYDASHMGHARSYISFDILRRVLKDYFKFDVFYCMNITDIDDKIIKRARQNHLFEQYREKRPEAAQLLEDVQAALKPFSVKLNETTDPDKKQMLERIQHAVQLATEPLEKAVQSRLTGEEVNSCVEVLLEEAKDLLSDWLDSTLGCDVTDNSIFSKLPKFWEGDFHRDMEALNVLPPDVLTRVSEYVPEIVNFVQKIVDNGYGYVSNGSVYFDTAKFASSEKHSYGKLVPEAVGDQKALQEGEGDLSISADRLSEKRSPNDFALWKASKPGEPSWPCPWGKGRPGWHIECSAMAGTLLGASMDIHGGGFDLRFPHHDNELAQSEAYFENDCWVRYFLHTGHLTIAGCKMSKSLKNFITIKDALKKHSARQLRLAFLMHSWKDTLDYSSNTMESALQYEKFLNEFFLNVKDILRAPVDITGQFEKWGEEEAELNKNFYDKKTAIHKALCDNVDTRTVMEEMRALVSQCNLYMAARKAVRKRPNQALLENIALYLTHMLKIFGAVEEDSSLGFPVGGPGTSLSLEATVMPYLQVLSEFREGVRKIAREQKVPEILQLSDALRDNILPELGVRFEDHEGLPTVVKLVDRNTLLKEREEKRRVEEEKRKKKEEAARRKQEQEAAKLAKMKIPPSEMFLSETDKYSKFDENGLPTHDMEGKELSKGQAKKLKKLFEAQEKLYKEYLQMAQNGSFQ

Experiment [2] deals with T2, Mitogen-activated protein kinase kinase kinase kinase 3 (Homo sapiens, UniProt Q8IVH8).
T2 sequence (Q8IVH8 whole entry): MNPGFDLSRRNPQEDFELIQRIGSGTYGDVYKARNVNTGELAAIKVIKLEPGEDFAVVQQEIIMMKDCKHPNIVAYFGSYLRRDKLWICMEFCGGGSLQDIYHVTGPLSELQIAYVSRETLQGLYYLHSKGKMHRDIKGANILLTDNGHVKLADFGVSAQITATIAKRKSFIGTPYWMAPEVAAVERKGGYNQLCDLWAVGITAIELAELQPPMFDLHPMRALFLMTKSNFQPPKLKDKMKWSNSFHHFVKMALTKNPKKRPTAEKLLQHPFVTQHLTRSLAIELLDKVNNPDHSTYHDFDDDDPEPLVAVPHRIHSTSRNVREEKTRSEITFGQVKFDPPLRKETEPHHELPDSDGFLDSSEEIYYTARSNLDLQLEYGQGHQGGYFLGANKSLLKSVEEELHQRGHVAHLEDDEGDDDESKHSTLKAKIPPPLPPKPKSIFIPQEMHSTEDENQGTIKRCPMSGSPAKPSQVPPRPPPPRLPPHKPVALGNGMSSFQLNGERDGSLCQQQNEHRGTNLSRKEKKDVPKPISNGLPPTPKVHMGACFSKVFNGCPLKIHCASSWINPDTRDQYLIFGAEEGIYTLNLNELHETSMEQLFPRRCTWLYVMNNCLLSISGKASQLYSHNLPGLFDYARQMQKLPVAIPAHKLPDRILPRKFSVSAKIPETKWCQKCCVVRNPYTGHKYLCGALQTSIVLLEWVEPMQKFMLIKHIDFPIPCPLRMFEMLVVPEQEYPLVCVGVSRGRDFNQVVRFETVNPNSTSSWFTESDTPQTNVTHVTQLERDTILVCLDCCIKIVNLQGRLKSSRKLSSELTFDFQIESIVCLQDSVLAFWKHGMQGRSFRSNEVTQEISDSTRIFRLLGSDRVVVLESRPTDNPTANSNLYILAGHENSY

Experiment [3] has as its target Receptor-interacting serine/threonine-protein kinase 3 (Homo sapiens, UniProt Q9Y572).
Experiment [4] deals with T3, Dual specificity mitogen-activated protein kinase kinase 6 (Homo sapiens, UniProt P52564).
T3 sequence (P52564 whole entry): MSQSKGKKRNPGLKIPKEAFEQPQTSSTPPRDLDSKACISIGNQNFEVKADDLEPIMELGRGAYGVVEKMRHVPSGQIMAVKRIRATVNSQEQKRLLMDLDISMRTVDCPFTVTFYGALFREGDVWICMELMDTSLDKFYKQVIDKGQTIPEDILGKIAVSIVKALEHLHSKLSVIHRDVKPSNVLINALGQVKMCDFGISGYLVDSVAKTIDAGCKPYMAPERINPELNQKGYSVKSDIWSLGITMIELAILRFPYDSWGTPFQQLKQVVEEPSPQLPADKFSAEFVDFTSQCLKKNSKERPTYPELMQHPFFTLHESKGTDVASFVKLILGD

For experiment [5], the target named is T4, Serine/threonine-protein kinase ULK3 (Homo sapiens, UniProt Q6PHR2).
T4 sequence (Q6PHR2 whole entry): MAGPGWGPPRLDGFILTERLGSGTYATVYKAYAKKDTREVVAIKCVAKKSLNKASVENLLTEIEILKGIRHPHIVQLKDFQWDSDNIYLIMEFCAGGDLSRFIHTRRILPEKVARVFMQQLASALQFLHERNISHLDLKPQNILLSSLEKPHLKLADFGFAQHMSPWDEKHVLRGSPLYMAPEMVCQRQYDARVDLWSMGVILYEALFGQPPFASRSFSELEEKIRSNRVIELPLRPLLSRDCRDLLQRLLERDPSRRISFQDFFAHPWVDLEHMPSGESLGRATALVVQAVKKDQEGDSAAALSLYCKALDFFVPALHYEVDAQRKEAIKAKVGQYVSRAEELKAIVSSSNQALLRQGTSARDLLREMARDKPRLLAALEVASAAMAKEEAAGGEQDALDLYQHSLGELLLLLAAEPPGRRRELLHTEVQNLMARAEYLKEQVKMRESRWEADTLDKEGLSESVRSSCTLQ

For experiment [6], the target named is RAC-gamma serine/threonine-protein kinase (Homo sapiens, UniProt Q9Y243).
In experiment [7] the target is Serine/threonine-protein kinase pim-1 (Homo sapiens, UniProt P11309).
Experiment [8] deals with Serine/threonine-protein kinase MRCK alpha (Homo sapiens, UniProt Q5VT25).

Each structure is given as a SMILES string. Active and inactive are the calls of the source.
Further: in the data inactive means no Kd found up to 30 µM.

Chain of Receptor-interacting serine/threonine-protein kinase 3 (Q9Y572 whole entry): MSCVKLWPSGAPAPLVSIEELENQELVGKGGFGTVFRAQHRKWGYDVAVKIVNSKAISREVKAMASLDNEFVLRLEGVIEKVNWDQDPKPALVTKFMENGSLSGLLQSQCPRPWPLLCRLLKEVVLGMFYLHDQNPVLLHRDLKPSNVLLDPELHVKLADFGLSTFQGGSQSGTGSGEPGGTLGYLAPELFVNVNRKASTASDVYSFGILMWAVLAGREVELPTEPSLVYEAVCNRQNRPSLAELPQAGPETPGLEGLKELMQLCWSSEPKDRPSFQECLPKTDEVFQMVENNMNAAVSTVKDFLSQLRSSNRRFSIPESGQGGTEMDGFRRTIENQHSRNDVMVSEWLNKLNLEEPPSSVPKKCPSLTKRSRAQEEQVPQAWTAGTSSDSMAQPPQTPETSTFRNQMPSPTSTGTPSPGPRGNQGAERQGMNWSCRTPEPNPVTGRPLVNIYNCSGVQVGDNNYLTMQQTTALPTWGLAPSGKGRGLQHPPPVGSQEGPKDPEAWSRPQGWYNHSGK
Chain of Serine/threonine-protein kinase pim-1 (P11309 whole entry): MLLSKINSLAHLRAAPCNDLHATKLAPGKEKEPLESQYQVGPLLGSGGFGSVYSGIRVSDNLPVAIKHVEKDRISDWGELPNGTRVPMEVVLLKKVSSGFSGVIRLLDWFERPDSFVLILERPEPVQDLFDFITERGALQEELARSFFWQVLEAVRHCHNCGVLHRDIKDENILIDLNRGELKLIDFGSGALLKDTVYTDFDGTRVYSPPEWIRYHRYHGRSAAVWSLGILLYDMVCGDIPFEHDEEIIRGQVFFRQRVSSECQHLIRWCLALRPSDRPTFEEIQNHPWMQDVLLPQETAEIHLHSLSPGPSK
Chain of RAC-gamma serine/threonine-protein kinase (Q9Y243 whole entry): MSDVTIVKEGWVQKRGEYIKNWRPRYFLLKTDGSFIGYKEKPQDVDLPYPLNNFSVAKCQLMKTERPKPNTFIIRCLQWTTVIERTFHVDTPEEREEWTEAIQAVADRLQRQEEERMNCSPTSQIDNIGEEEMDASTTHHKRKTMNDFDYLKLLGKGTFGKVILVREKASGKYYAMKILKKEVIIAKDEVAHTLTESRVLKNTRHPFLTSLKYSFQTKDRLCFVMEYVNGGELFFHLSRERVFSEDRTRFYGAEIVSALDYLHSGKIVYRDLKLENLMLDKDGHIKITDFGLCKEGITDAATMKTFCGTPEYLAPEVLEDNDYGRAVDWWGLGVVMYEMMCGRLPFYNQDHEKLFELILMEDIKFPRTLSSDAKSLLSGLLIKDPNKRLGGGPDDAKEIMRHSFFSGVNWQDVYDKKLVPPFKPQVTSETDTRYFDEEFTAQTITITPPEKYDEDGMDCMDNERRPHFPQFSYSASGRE
Chain of Serine/threonine-protein kinase MRCK alpha (Q5VT25 whole entry): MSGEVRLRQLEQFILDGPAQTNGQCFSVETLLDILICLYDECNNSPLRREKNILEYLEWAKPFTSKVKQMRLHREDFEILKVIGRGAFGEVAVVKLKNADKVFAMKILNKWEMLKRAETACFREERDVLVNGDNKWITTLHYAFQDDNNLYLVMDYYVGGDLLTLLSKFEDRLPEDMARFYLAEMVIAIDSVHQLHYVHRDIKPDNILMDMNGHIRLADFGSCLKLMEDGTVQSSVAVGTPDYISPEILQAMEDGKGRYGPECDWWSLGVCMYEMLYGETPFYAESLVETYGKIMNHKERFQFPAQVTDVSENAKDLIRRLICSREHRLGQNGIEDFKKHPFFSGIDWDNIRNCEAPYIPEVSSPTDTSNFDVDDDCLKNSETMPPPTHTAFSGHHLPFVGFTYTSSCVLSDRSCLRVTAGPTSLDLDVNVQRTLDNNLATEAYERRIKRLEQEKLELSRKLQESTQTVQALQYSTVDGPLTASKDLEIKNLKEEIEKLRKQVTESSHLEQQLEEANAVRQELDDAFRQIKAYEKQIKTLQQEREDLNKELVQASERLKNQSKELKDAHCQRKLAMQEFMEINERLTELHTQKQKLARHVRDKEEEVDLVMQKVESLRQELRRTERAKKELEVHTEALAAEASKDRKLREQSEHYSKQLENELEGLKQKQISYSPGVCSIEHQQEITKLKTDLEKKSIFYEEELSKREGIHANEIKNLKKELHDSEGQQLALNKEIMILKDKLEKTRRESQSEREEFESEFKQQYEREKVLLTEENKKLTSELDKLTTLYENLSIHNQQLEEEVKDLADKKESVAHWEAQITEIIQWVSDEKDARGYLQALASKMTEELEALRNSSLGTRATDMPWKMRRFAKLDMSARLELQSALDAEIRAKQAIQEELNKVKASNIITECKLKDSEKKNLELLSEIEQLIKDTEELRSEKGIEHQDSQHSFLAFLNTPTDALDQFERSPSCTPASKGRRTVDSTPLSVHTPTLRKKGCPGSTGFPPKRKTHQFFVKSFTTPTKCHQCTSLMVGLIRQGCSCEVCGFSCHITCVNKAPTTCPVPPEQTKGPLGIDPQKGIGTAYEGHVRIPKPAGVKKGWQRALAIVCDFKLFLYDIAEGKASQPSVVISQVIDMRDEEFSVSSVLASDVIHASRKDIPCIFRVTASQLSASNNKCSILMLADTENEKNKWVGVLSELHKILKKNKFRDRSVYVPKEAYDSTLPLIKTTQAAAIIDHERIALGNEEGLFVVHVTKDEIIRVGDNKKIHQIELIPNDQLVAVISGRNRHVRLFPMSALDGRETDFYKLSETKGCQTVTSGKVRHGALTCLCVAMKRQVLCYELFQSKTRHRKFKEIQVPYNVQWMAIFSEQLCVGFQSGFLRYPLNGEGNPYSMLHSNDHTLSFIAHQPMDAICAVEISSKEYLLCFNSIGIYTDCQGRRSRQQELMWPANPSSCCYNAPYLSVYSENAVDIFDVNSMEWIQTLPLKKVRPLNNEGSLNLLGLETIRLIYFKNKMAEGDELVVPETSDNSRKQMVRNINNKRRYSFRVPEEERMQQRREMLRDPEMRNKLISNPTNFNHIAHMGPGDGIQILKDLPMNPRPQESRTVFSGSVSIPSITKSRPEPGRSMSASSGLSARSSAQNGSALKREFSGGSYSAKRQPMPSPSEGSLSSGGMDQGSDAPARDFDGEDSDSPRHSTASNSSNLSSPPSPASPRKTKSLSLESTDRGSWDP

For `Nc1ncnc2c1c(-c1cccc(OCc3ccccc3)c1)cn2[C@H]1C[C@@H](CN2CCC2)C1` [AEW-541], the Kd in experiment [1] was > 30 µM (inactive); in experiment [2], > 30 µM (inactive); in experiment [3] it was 6.45 µM (active); in experiment [4], > 30 µM (inactive); in experiment [5], > 30 µM (inactive); in experiment [6] it was > 30 µM (inactive). The Kd in experiment [7] and in experiment [8] was > 30 µM (inactive) in each case.

Consider `Cc1nc(NC(=O)N2CCC[C@H]2C(N)=O)sc1-c1ccnc(C(C)(C)C(F)(F)F)c1` [ALPELISIB], for which the Kd in experiment [1], in experiment [2], in experiment [3], in experiment [4], in experiment [5] and in experiment [6] was > 30 µM (inactive) throughout. For the same molecule, the Kd in experiment [7] and in experiment [8] was > 30 µM (inactive) throughout.

For the molecule `COc1cc([C@@H]2c3cc4c(cc3[C@H](O)[C@H]3COC(=O)[C@@H]23)OCO4)cc(OC)c1OC` [AXL-1717], the Kd in experiment [1], in experiment [2], in experiment [3], in experiment [4], in experiment [5] and in experiment [6] was > 30 µM (inactive) in each case. The Kd in experiment [7] and in experiment [8] was > 30 µM (inactive) in each case.

With `Cc1cc(C(=O)NOCCO)c(Nc2ccc(I)cc2F)n(C)c1=O` [AZD-8330], the Kd in experiment [1], in experiment [2], in experiment [3], in experiment [4], in experiment [5] and in experiment [6] was > 30 µM (inactive) throughout. The Kd in experiment [7] and in experiment [8] was > 30 µM (inactive) throughout.

For the molecule `Cn1cnc2c(F)c(Nc3ccc(Br)cc3F)c(C(=O)NOCCO)cc21` [BINIMETINIB], the Kd in experiment [1], in experiment [2], in experiment [3], in experiment [4], in experiment [5] and in experiment [6] was > 30 µM (inactive) in each case. Also, the Kd in experiment [7] and in experiment [8] was > 30 µM (inactive) throughout.

As for `CCn1c(C(=O)N(C2CC2)C2CC2)cc2c3c(ncn3C)c(Nc3cc(C)n(C)n3)nc21` [BMS-911543], the Kd in experiment [1], in experiment [2], in experiment [3], in experiment [4], in experiment [5] and in experiment [6] was > 30 µM (inactive) each time. Besides, the Kd in experiment [7] and in experiment [8] was > 30 µM (inactive) in each case.

In the case of `COc1cc2ncnc(Oc3cccc(NC(=O)Nc4cc(C(C)(C)C(F)(F)F)on4)c3)c2cc1OC` [CEP-32496], the Kd in experiment [1] is > 30 µM (inactive); in experiment [2], > 30 µM (inactive); in experiment [3], 0.245 µM; in experiment [4], > 30 µM (inactive); in experiment [5], > 30 µM (inactive); in experiment [6], > 30 µM (inactive). Further, the Kd in experiment [7] and in experiment [8] was > 30 µM (inactive) throughout.

Regarding `Cc1cc(Nc2ncc(Cl)c(Nc3ccccc3S(=O)(=O)C(C)C)n2)c(OC(C)C)cc1C1CCNCC1` [CERITINIB], the Kd in experiment [1], in experiment [2], in experiment [3], in experiment [4], in experiment [5] and in experiment [6] was > 30 µM (inactive) in each case. In addition, the Kd in experiment [7] and in experiment [8] was > 30 µM (inactive) in each case.

`COc1c(OCCCN2CCOCC2)ccc2c1N=C(NC(=O)c1cnc(N)nc1)N1CCN=C21` [COPANLISIB]: the Kd in experiment [1], in experiment [2], in experiment [3], in experiment [4], in experiment [5] and in experiment [6] was > 30 µM (inactive) throughout. Moreover, the Kd in experiment [7] and in experiment [8] was > 30 µM (inactive) in each case.

`COCC(=O)NC/C=C/c1ccc2ncnc(Nc3ccc(Oc4ccc(C)nc4)c(C)c3)c2c1` [CP-724714]: the Kd in experiment [1], in experiment [2], in experiment [3], in experiment [4], in experiment [5] and in experiment [6] was > 30 µM (inactive) in each case. The Kd in experiment [7] and in experiment [8] was > 30 µM (inactive) each time.

In the case of `C#Cc1cccc(Nc2ncnc3cc(OC)c(OCCCCCCC(=O)NO)cc23)c1` [CUDC-101], the Kd in experiment [1], in experiment [2], in experiment [3], in experiment [4], in experiment [5] and in experiment [6] was > 30 µM (inactive) each time. For the same molecule, the Kd in experiment [7] and in experiment [8] was > 30 µM (inactive) throughout.

For `Cc1cccc(-c2nn3c(c2-c2ccnc4ccc(C(N)=O)cc24)CCC3)n1` [GALUNISERTIB], the Kd in experiment [1] was > 30 µM (inactive); in experiment [2], > 30 µM (inactive); in experiment [3], 0.011 µM (active); in experiment [4], > 30 µM (inactive); in experiment [5] it was > 30 µM (inactive); in experiment [6], > 30 µM (inactive). Besides, the Kd in experiment [7] and in experiment [8] was > 30 µM (inactive) each time.

For `CNC(=O)c1cccc2cc(Oc3ccnc4cc(OCC5(N)CC5)c(OC)cc34)ccc12` [LUCITANIB], the Kd in experiment [1], in experiment [2], in experiment [3], in experiment [4], in experiment [5] and in experiment [6] was > 30 µM (inactive) throughout. Also, the Kd in experiment [7] and in experiment [8] was > 30 µM (inactive) throughout.

In general, Kd refers to a measure of binding affinity in units of concentration.
